Experimental data reported in PubChem BioAssay AID488890 (Southern Research Specialized Biocontainment Screening …, 2010).
pIC50: −log10 of the molar value. Records with an inconclusive call do not appear. Calls of active or inactive are those of the source. The rule behind the calls is not given here.

What follows are compounds tested on Mycobacterium tuberculosis non-replicating, growth inhibition (assay: growth inhibition of non-replicating M. tuberculosis (AID 488890)).
In the case of `COc1ccc(C2(O)CCN(CCCCOc3ccccc3)CC2)cc1`, the IC50 was 18.1 µM (inactive).
For `CCOC(=O)COc1ccc2c(=O)c(-c3ccccc3)coc2c1`, the pIC50 was > 7.00.
With `NCCNc1ccc([N+](=O)[O-])c2cccnc12` the pIC50 was 5.31.
`O=C(COc1ccc2ccccc2c1)Nc1nccs1` was tested, and the pIC50 was 5.23.
For `CCc1ccc(NC(=O)CCc2ccc(C)o2)cc1`, the pIC50 was 5.02.
`CCCCn1c(=O)c(C(=O)Nc2ncccc2C)c(O)c2ccccc21` showed a pIC50 of 5.42.
With `Cn1cnc([N+](=O)[O-])c1Sc1ccc([N+](=O)[O-])cc1` the IC50 was 19.7 µM (inactive).
For `O=[N+]([O-])c1cc([N+](=O)[O-])c2cc3ccccc3nc2c1`, the pIC50 was > 7.00.
For `O=[N+]([O-])c1ccc(N2CCCCCC2)c2nonc12`, the IC50 was 21.7 µM (inactive).
In the case of `COc1cccc(C(=O)Nc2nnc(-c3ccc(F)cc3)o2)c1`, the pIC50 was 5.09.
For `C/C(=N/NC(=O)c1ccncc1)C1=C(O)CC(C)(C)CC1=O`, the IC50 was 13 µM (inactive).
Compound `O=C(OCc1cccc([N+](=O)[O-])c1)c1ccc2ccccc2n1` has a pIC50 of 5.14.
`COc1cccc2sc(Nc3nnc(-c4cccs4)o3)nc12` gave a pIC50 of 5.31.
Compound `Cc1ccnc(NC(=O)c2cc3ccccc3o2)c1` has a pIC50 of 5.32.
`CCn1c2ccccc2c2cc(CNCc3ccc(OC)cc3OC)ccc21` was tested, and the pIC50 was 5.13.
With `O=C(CCc1ccccc1)NC1C2CC3CC(C2)CC1C3` (centres undefined) the pIC50 was 5.33.
With `COc1cc(C(=O)CCN2CCC(c3ccccc3)C2)cc(OC)c1OC` (centres undefined) the pIC50 was 5.19.
For `CN(C)CC/C=C1\c2ccccc2Sc2cc(F)c(Cl)cc21`, the IC50 was 10.5 µM (inactive).
With `CC(C)(C)Sc1ccc2nc3c(n2c1)CCCC3` the pIC50 was 5.03.
`O=C(CCSc1ccccn1)c1ccccc1` showed a pIC50 of 5.01.
`C/C(=C\C(=O)c1ccncc1)Nc1ccccc1O` gave a pIC50 of 5.38.
`Cc1ccc(NC(=O)CN(C)C2CCCCC2)cc1Br` showed a pIC50 of 6.46.
`O=C(/C=C/Nc1ccccc1O)c1ccco1` was tested, and the pIC50 was 5.69.
Compound `COc1ccc(C(=O)C(CN2CCCC2)c2ccccc2)cc1` (centres undefined) has a pIC50 of 5.25.
`CCOC(=O)CC(=O)Nc1ccc(C(=O)OCC)cc1` gave a pIC50 of 5.28.
In the case of `CCC/C(=N\NC(=O)c1ccco1)c1ccc(Cl)s1`, the pIC50 was 5.03.
With `COc1cc(CNCCc2c[nH]c3ccccc23)ccc1OCc1ccc(F)cc1` the IC50 was 11.5 µM (inactive).
`Cc1n[nH]c(C)c1CCOc1ccc(C(C)C)cc1` was tested, and the IC50 was 19.5 µM (inactive).
For `COC(=O)CN(C#N)c1nc(N(C)C)nc(N(C)C)n1`, the IC50 was 16.5 µM (inactive).
`COC(=O)c1cc(-c2ccc(OC)cc2)on1` showed a pIC50 of 5.81.
With `CC1=NNC(=O)/C1=C\c1cn(-c2ccccc2)nc1-c1ccccc1` the pIC50 was 5.11.
`O=C(N/N=C/C=C/c1ccccc1)c1ccncc1` showed a pIC50 of 6.04.
In the case of `O=C(COC(=O)c1ccc(Br)o1)Nc1ncc([N+](=O)[O-])s1`, the IC50 was 14.4 µM (inactive).
`FC(F)c1nnc2ccc(Cl)nn12` showed a pIC50 of 5.23.
For `COc1cccc(-c2nnc(NC(=O)c3ccc(S(=O)(=O)N(CC(C)C)CC(C)C)cc3)o2)c1`, the IC50 was 13.7 µM (inactive).
In the case of `O=C(NCc1nnc(SC/C=C/c2ccccc2)o1)c1ccco1`, the pIC50 was 5.37.
`COc1ccccc1-c1nnc(-c2ccc(C)cc2)o1` showed a pIC50 of 5.19.
`Cc1cc(C)n(-c2nc(SCCN(C)C)c3c4c(sc3n2)CCCC4)n1` gave a pIC50 of 5.17.
For `O=C(CCc1ccccc1F)N1CCN(c2ccccc2)CC1`, the pIC50 was 5.68.
For `CC1(C)CC(=O)C2=C(C1)OC(N)=C([N+](=O)[O-])C2c1ccc(C#N)s1` (centres undefined), the IC50 was 11.1 µM (inactive).
`CC1=NN(C(=O)COc2ccccc2C)C(O)(c2ccc(Cl)cc2)C1` (centres undefined) was tested, and the pIC50 was 5.85.
With `O=C(C/C=N\OCc1ccc([N+](=O)[O-])cc1)Nc1ccc(Cl)cc1` the pIC50 was 5.28.
`Cc1ccc(OCC(=O)OCc2c(C)noc2C)cc1C` was tested, and the IC50 was 11.7 µM (inactive).
Compound `CC(C)(C)c1ccc(OCCCC(=O)NC2=NCCS2)cc1` has a pIC50 of 5.01.
With `Cc1noc2ncnc(Sc3ccc(Cl)cc3)c12` the IC50 was 10.9 µM (inactive).
With `Cc1ccc2c(c1)C(=O)C(=O)N2CCCOc1ccccc1` the IC50 was 22.9 µM (inactive).
For `O=C(N/N=C/C=C/c1ccccc1[N+](=O)[O-])c1ccncc1`, the pIC50 was 5.91.
`N/C(=N\OC(=O)c1cccs1)c1ccccc1` was tested, and the IC50 was 24 µM (inactive).
In the case of `O=C(COC(=O)CC1CCCC1)Nc1ccc(Cl)cn1`, the IC50 was 17.2 µM (inactive).
`CN(C)CCCNc1cc(C(C)(C)C)nc2c(-c3ccc(Cl)cc3)cnn12` gave a pIC50 of 5.28.
`CCOC(=O)Cn1cc(C#N)c2cccc(CC)c21` gave a pIC50 of 5.04.
In the case of `O=C1Nc2cc(C(=O)NCCN3CCCCCC3)ccc2S/C1=C\c1ccccc1`, the IC50 was 12.5 µM (inactive).
With `c1ccc2sc(SCc3ccc(-c4nnco4)cc3)nc2c1` the IC50 was 13.2 µM (inactive).
In the case of `Cc1ccc(Oc2c(C(N)=O)cc([N+](=O)[O-])cc2[N+](=O)[O-])cc1`, the pIC50 was 5.66.
In the case of `O=C(NCCc1ccccc1)c1nc(-c2cccs2)no1`, the pIC50 was 5.66.
Compound `CC(=O)Oc1c(-c2ccc(Br)o2)oc2ccccc2c1=O` has a pIC50 of 5.54.
Work on `CCOC(=O)C1(O)CC(C)=NN1C(=O)c1cccc(Br)c1` (centres undefined) yielded a pIC50 of 5.85.
`Cc1ccc(C)c(NC(=O)c2cc([N+](=O)[O-])cc([N+](=O)[O-])c2)c1` was tested, and the IC50 was 28.3 µM (inactive).
`Cc1ccc2[nH]c(C)c(CCNC(=O)c3cc4cc([N+](=O)[O-])ccc4oc3=O)c2c1` showed a pIC50 of 5.04.
